ChEMBL document CHEMBL1201862, “PubChem BioAssay data set” (2004)
Activity calls are given as the source filed them.

Experiments:
[1] = bead-based luminescence quenchers, dual-tagged ARNT – biochemical, AlphaScreen, cherry-pick, artefact control for ARNT-TACC3 interaction inhibitor project, dose response (AID 651705); assay type: functional;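 also: AlphaScreen bead proximity signal that flags compounds interfering with the detection technology; potency reflects signal decrease which marks the compound as an assay artifact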
Cytochrome P450 2C9 = Cytochrome P450 2C9 (Homo sapiens, UniProt P11712)
Cytochrome P450 2C19 = Cytochrome P450 2C19 (Homo sapiens, UniProt P33261); experiment: Cytochrome panel assay with activity outcomes. Panel member name: p450-cyp2c19 Compounds with AC50 equal or less than 10 uM are considered active; assay type: functional; conditions: read-out: AC50
[2] = inhibition of ARNT PAS-B/TACC3 complex formation – biochemical, AlphaScreen, cherry-picked samples, confirmation (AID 651703); assay type: functional, Homo sapiens;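 also: His-tagged ARNT PAS-B domain paired with GST-TACC3 E629A dimer coactivator fragment; potency of inhibitors that break up the complex and lower AlphaScreen signal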
Cytochrome P450 2D6 = Cytochrome P450 2D6 (Homo sapiens, UniProt P10635);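 also: CYP2D6 member of a cytochrome P450 panel assay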
[3] = target: T1, Tyrosine-protein phosphatase non-receptor type 22 (Homo sapiens, UniProt Q9Y2R2); experiment: PTPN22 enzyme inhibitors – biochemical, fluorescence, LYP catalytic domain, selectivity assay for LMPTP inhibitor project, dose response (AID 652006); assay type: functional; conditions: read-out: IC50_Mean
T1 sequence (Q9Y2R2 whole entry): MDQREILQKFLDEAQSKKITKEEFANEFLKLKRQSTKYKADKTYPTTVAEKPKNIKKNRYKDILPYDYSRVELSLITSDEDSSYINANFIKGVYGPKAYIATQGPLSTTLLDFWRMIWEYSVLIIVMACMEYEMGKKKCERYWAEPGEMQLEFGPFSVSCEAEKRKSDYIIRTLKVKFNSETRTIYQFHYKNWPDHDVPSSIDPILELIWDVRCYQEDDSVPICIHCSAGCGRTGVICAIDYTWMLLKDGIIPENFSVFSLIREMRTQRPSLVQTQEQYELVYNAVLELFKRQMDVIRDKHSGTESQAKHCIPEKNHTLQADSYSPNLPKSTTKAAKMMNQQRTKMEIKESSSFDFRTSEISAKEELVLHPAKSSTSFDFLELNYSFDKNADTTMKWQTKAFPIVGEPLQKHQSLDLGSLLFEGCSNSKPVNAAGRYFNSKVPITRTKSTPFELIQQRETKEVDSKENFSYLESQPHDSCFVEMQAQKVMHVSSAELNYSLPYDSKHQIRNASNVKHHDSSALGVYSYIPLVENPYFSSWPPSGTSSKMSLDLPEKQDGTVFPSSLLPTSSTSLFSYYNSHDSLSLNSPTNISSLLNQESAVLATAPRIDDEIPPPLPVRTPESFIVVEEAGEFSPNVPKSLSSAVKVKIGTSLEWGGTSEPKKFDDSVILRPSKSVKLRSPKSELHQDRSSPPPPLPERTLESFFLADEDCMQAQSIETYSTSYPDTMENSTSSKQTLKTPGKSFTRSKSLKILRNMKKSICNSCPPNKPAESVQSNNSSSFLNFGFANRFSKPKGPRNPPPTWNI

[4] = target: T2, Low molecular weight phosphotyrosine protein phosphatase (Homo sapiens, UniProt P24666); assay type: functional; conditions: read-out: IC50_Mean;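 also: Dose-response confirmation assay measuring inhibition of LMPTP enzyme activity by fluorescence intensity read-out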
T2 sequence (P24666 whole entry): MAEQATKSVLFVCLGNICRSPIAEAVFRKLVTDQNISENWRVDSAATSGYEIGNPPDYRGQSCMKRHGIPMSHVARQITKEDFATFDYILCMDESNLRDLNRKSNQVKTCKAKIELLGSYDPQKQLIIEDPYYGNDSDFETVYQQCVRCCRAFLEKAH

[5] = target: T3, Short transient receptor potential channel 4 (Mus musculus, UniProt Q9QUQ5); experiment: calcium entry via TRPC4 opening agents – cell-based, HEK293 TRPC4/mu-opioid, Fluo-4 calcium, dose response (AID 434937); assay type: functional
T3 sequence (Q9QUQ5 whole entry): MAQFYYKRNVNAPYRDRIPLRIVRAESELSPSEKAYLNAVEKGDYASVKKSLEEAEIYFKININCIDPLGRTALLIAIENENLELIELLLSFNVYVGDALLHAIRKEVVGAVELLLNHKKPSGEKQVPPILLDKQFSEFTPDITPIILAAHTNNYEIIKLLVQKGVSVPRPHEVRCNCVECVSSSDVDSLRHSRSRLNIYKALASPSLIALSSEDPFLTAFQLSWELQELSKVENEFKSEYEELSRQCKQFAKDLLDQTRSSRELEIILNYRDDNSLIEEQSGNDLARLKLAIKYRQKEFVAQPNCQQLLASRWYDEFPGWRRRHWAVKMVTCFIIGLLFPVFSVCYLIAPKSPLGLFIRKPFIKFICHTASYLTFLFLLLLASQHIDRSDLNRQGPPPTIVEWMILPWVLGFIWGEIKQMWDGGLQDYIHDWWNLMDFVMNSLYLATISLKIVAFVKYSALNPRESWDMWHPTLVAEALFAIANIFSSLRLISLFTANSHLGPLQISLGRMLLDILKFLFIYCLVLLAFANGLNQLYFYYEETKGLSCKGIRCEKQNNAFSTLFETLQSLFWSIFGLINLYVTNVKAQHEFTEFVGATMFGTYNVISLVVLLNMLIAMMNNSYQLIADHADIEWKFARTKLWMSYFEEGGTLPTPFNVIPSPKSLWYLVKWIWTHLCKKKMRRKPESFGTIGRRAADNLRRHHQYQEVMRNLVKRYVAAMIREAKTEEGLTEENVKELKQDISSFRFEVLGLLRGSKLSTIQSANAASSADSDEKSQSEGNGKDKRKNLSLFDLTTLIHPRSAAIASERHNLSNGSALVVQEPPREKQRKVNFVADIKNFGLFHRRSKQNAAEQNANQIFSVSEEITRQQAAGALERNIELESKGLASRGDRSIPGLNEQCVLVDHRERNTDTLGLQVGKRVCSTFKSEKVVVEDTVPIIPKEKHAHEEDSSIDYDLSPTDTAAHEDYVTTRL

[6] = target: Ras and Rab interactor 1/Tyrosine-protein kinase ABL1 (Homo sapiens, UniProt P00519+Q13671); assay type: functional;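 also: biochemical TR-FRET dose-response test measuring inhibition of binding between Rin1 and Abl proteins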
[7] = target: Photoreceptor-specific nuclear receptor (Homo sapiens, UniProt Q9Y5X4); assay type: functional, cell-based;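 also: CHO-S cells with Gal4-NCOR and VP16-NR2E3 two-hybrid luciferase reporter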
Sequence of Photoreceptor-specific nuclear receptor (Q9Y5X4 whole entry, the tested form may be a part): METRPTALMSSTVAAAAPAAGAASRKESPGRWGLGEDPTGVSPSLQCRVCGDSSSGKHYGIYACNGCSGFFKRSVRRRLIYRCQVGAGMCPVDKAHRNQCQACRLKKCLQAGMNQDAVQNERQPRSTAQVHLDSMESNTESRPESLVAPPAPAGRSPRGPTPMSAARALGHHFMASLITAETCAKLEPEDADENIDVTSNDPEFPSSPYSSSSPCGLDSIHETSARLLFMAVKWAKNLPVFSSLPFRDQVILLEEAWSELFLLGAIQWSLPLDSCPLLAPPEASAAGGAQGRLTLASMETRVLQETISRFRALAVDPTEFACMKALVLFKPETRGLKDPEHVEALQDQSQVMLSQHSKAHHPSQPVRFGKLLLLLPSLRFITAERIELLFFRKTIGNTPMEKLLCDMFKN

Sequence of Cytochrome P450 2C9 (P11712 whole entry): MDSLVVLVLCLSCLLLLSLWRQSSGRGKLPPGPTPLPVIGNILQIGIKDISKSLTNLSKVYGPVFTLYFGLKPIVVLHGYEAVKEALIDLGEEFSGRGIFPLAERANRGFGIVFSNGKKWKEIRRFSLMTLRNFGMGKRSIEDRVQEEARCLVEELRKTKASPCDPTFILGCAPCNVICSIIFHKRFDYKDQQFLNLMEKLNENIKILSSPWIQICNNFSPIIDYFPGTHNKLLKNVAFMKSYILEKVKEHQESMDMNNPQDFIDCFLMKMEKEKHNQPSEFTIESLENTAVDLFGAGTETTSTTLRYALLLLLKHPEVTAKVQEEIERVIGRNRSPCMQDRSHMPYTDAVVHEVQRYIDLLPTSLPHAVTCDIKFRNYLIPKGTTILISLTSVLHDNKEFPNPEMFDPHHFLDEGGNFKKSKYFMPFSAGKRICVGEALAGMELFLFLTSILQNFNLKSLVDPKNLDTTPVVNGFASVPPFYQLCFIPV
Sequence of Cytochrome P450 2D6 (P10635 whole entry, the tested form may be a part): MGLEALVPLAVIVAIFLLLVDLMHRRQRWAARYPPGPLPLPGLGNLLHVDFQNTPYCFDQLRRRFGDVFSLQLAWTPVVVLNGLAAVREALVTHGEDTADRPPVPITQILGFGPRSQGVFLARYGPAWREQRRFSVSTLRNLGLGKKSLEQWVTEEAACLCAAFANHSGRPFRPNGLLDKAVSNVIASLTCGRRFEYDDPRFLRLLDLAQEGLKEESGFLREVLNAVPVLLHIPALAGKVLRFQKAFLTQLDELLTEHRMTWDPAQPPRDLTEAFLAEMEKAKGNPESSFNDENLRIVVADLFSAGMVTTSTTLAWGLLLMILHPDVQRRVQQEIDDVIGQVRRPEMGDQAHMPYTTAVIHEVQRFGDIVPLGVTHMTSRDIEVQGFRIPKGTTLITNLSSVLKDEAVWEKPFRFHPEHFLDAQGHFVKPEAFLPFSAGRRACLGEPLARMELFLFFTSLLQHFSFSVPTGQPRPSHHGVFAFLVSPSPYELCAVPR
Sequence of Ras and Rab interactor 1/Tyrosine-protein kinase ABL1 (P00519 whole entry, the tested form may be a part): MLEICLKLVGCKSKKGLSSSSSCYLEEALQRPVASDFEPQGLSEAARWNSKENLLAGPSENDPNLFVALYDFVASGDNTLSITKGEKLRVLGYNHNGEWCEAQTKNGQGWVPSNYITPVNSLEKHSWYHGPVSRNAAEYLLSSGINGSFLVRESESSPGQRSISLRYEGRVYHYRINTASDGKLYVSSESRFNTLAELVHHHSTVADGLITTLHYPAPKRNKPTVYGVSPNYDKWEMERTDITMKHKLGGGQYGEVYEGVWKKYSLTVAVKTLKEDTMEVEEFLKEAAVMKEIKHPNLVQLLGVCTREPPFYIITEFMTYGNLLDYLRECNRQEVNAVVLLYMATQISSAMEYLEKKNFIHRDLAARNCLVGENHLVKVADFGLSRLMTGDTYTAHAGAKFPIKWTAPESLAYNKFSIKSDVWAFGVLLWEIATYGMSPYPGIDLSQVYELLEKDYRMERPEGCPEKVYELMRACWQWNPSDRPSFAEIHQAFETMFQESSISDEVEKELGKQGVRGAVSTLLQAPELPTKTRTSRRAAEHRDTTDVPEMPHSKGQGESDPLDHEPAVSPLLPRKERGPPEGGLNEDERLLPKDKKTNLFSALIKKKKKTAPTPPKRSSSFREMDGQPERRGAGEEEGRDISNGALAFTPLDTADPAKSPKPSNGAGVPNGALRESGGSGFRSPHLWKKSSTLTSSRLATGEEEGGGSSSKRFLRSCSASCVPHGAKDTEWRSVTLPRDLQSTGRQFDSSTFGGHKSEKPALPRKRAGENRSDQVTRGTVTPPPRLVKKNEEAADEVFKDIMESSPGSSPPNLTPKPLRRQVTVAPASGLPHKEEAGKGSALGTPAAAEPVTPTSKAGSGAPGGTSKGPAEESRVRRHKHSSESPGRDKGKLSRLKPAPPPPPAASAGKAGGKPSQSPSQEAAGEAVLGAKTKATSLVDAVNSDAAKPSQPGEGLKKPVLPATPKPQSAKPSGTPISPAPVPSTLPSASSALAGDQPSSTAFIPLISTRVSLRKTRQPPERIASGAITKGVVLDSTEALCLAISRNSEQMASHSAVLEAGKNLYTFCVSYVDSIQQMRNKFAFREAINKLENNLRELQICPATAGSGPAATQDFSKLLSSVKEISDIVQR
Sequence of Ras and Rab interactor 1/Tyrosine-protein kinase ABL1 (Q13671 whole entry, the tested form may be a part): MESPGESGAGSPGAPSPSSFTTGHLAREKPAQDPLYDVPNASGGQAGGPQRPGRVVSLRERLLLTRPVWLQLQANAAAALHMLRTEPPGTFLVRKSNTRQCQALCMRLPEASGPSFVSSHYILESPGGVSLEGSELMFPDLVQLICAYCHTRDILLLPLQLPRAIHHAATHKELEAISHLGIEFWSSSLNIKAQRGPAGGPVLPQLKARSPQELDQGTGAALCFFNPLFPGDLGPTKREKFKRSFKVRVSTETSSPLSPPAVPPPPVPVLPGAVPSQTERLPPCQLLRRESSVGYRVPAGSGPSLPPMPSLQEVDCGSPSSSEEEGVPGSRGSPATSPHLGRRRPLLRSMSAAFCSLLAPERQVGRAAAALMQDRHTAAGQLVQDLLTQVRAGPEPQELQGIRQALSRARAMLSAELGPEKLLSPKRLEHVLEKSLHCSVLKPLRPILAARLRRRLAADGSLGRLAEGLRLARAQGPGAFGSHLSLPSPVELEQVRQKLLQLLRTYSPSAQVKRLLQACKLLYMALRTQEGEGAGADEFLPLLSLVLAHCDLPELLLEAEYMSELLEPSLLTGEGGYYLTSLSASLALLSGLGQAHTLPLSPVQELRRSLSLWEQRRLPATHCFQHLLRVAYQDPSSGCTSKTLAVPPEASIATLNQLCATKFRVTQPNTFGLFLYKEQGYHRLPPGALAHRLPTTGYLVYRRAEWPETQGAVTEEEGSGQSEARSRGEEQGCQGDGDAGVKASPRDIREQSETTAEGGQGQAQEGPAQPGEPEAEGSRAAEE
Sequence of Cytochrome P450 2C19 (P33261 whole entry, the tested form may be a part): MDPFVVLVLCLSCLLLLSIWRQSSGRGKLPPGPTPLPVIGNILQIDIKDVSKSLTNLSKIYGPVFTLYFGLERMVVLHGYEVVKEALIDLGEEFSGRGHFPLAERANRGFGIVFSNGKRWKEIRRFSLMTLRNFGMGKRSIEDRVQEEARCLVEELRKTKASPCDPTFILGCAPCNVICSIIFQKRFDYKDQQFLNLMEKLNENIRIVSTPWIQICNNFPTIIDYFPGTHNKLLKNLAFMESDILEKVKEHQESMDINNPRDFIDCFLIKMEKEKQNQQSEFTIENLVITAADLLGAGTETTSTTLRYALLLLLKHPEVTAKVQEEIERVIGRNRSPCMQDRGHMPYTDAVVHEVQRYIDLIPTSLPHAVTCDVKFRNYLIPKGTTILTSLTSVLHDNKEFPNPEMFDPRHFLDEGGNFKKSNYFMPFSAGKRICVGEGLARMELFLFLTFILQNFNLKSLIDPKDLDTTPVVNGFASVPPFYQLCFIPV

Structure (SMILES): Cc1ccccc1N1C(=O)NC(=O)/C(=C\NNC(=O)c2ccncc2)C1=O
- AC50 [1]: 114 µM (active)

Structure (SMILES): CCCN(C(=O)Cc1n[nH]c(N)n1)C1(C(=O)Nc2ccccc2C)CCCCC1
- AC50 (Cytochrome P450 2C9): 0.224 µM (inconclusive)
- AC50 (Cytochrome P450 2C19): 20 µM (inconclusive)
- AC50 [2]: 90.8 µM (active)
- AC50 (Cytochrome P450 2D6): 17.8 µM (inconclusive)

Structure (SMILES): CC(Nc1nc(N2CCNCC2)nc2ccccc12)c1ccccc1 (stereo unspecified)
- IC50 [3]: 37.9 µM (inactive)
- IC50 [4]: 13.8 µM (active)
- EC50 [5]: 5.31 µM (active)

Structure (SMILES): CCCCSCc1[nH]c(O)nc1C(=O)CCCCC(=O)OCC
- IC50 [6]: 4.76 µM (active)

Structure (SMILES): Cc1cc(NC(=O)CC(C)C)c(=O)n(Cc2ccccc2F)c1
- AC50 [1]: 130 µM (active)

Structure (SMILES): Cc1nc2ccc(S(=O)(=O)Nc3cccc(-c4nc5cccnc5s4)c3)cc2s1
- IC50 [7]: 2.01 µM (active)
